US20260256960A1
Values joined by “and” are separate entries in the source; they are usually repeats but may differ in a detail not shown here. Equal entries are not always repeated. “Also recorded” adds a separate entry of the source. Where two headings read alike, the source gives them in different places.

Legend:
HEBSC from 3×Tg-AD mice = assay: Hippocampal-entorhinal brain slice culture (HEBSC) from 3×Tg-AD mice, lipid / Aβ / LysoTracker staining; assay type: cell-based, mouse; settings: for effect on ethanol-induced increase in cytosolic lipid / effect on ethanol-induced increase in intraneuronal Aβ: with ethanol
Protocol: HEBSC was performed using techniques routinely used in the laboratory^2,9,11 Briefly, sections were prepared from either the P7 or adult (6 mo) 3×-Tg-AD hippocampal-entorhinal cortex formation as described by Stoppini et al^16. […] Mice were decapitated, brains extracted and the hippocampal-entorhinal complex dissected in Gey's bugger (Sigma-Aldrich). Slices were cut transversely at 375 μm using a McIlwain tissue chopper and placed on Millicell culture inserts (Millipore, PICMORG50, up to 13 slices per insert). Slices acclimated in culture media (MEM plus 24 mM HEPES and Hank's salts, 25% horse serum, 5.5 g/L glucose, 2 mM L-glutamine) in a humified 5% CO2 incubator for seven days, followed by 12% horse serum for four days, and 6% horse serum until the completion of the experiments.

CX3CR1Cre^ERT.hM4di mice = assay: Microglial Gi DREADD inhibition in CX3CR1Cre^ERT.hM4di mice given ethanol +/- CNO; assay type: in vivo, mouse; settings: ten days of ethanol +/- CNO
Protocol: For in vivo studies, heterozygous CX3CR1.Cre^ERT.hM4di were treated with tamoxifen (75 mg/kg/d, i.p.) for 5 days during adulthood (12 weeks of age).

3×Tg-AD mice [1] = system: 3×Tg-AD mice
Protocol: (§1) Western blot was performed as reported previously^9,10. Brain tissue from the cerebral cortex was homogenized in lysis buffer (Tris-HCl, pH 7.5, Sucrose, EDTA, EGTA, 1% Triton X-100, protease, and phosphatase inhibitors). […] of protein were loaded into each lane on SDS polyacrylamide gels and were transferred to PVDF membranes. Membranes were washed in TBS and blocked for 1 hour at room temperature (Li-Cor Blocking Solution; 92760001) then were incubated overnight at 4° Celsius with primary antibodies (Table 1). Membranes were washed in TBS with 0.1% Tween-20 (Sigma-Aldrich, St. Louis, MO) then were incubated in the appropriate conjugated secondary antibody (Rockland H & L Pre-absorbed). Membranes were washed again in TBS and visualized using LiCor Image Studio Lite Ver 5.2. Western Blots were analyzed using Image Studio Lite software and each protein of interest was normalized to housekeeping protein GAPDH. […] The protein of interest was normalized to GAPDH for each sample and the percentage change relative to controls was calculated for each blot.

WT mice [2] = settings: WT cortex, 10-mo mice, ethanol 5 weeks
Protocol: as §1

3×Tg-AD mice [3] = system: 3×Tg-AD mice; remark: listed apart in the source
From the text: mRNA was extracted from frozen cortex or hippocampus as reported^10. Briefly, samples were homogenized with Trizol (Invitrogen) and RNA was isolated by chloroform extraction, followed by reverse transcription as described previously 11. SYBR green PCR master mix (Applied Biosystems, Foster City, CA) was used for qRT-PCR analysis. Primer sequences were designed using the National Library of Medicine Primer-BLAST tool or were obtained from PrimerBank database (Table 1) 12-14. Only primers with no predicted non-specific targets and single peak melt curves were used. Genes of interest were normalized to the expression of the reference gene 18S using the cycle threshold (Ct) value of each target gene product. The ΔΔCt method was used to compare relative differences between control and treatment groups, and the ratio by 18S or the percent change relative to 18S were used in analysis.

WT mice [4] = system: WT mice
3×Tg-AD mice [5] = system: 3×Tg-AD mice; remark: listed apart in the source
[6] = 5 g/kg/d i.g., 20% ethanol w/v, at 1 hour; cited from earlier work
[7] = 3×Tg-AD cortex, listed as ethanol
[8] = HEBSC from adult 3×Tg-AD mice, ENT region

**Q.** Which “effect on ethanol-induced increase in cytosolic lipid” value (HEBSC from 3×Tg-AD mice; HEBSC from 3×Tg-AD mice) does the source give for `C[N+]1([O-])CCN(C2=Nc3cc(Cl)ccc3Nc3ccccc32)CC1` [CNO] here?
**A.** prevented

**Q.** And the “effect on ethanol-induced proinflammatory activation of microglia in ENT (IF)” value (CX3CR1Cre^ERT.hM4di mice)?
**A.** prevented

**Q.** What about the “effect on ethanol-induced increases in total and neuronal lipid” value (CX3CR1Cre^ERT.hM4di mice; ENT) of the same molecule?
**A.** prevented

**Q.** Which results are given for `CCO` [Ethanol, ethanol]?
**A.** increase of active p-Tyr216 GSK3β (3×Tg-AD mice [1]; 3×Tg-AD): 17%; reduction of inactive pSer9 GSK3β (3×Tg-AD mice [1]; 3×Tg-AD): 15.6%; effect on BACE1 levels (3×Tg-AD mice [1]; 3×Tg-AD cortex): no effect; effect on PSEN1 levels (3×Tg-AD mice [1]; 3×Tg-AD cortex): no effect; increase in LAMP1 protein (3×Tg-AD mice [1]; 3×Tg-AD cortex): 26%; increase in LC3 (LC3-II) protein (3×Tg-AD mice [1]; 3×Tg-AD cortex): 20%; increase in P62 protein (3×Tg-AD mice [1]; 3×Tg-AD cortex): 20%; increase in p-mTOR (3×Tg-AD mice [1]; 3×Tg-AD cortex): ~ 2 fold; reduction in Beclin-1 protein (3×Tg-AD mice [1]; 3×Tg-AD cortex): 14%; reduction in LAL protein (3×Tg-AD mice [1]; 3×Tg-AD cortex): 19%; reduction in TFEB protein (3×Tg-AD mice [1]; 3×Tg-AD cortex): 20%; increase in p-mTOR (3×Tg-AD mice [1]; [7]): 2 fold; reduction in Beclin-1 protein (3×Tg-AD mice [1]; [7]): 20%; increase in LAMP1, females (WT mice [2]): ~ 33%; reduction in Beclin-1 protein, females (trend, p=0.08) (WT mice [2]): 13%; reduction in Beclin-1 protein, males (WT mice [2]): 12%; reduction in LC3A/B (WT mice [2]): 12%; increase in P62 protein, females (WT mice [2]; not altered in males): 33%; LAL (LIPA) gene expression (3×Tg-AD mice [3]; 3×Tg-AD): reduced; effect on hMAPT expression, cortex or hippocampus (3×Tg-AD mice [3]; 3×Tg-AD): No effect; effect on expression of human APP (hAPP) transgene, cortex (3×Tg-AD mice [3]; 3×Tg-AD cortex): no effect; increase in hAPP expression, male hippocampus (3×Tg-AD mice [3]; 3×Tg-AD males, no change in females): 38%; increase in total Aβ in ENT (WT mice [4]; 5 weeks ethanol): 36%; increase in lipid levels in ENT (WT mice [4]; chronic ethanol): 83%; increase in lysosomal lipid in ENT (WT mice [4]; chronic ethanol): ~ 2 fold; increase in lysosomal lipid in ENT (WT mice [4]; chronic ethanol, listed as ethanol): 2.5 fold; increase in Aβ (HEBSC from 3×Tg-AD mice; HEBSC, ethanol): 2 fold; increase in cytosolic lipid (HEBSC from 3×Tg-AD mice; HEBSC, ethanol): 2 fold; reduction of lysosomal acidification (LysoTracker red) (HEBSC from 3×Tg-AD mice; ethanol 100 mM, 4 days): 50%; increase in TUNEL+ neurodegeneration in ENT (3×Tg-AD mice [5]; 3×Tg-AD): 2.5 fold and 3 fold; increase in cytosolic lipid (LipidSpot), ENT (3×Tg-AD mice [5]; 3×Tg-AD): 88%; increase in cytosolic lipid (LipidSpot), FCX (3×Tg-AD mice [5]; 3×Tg-AD): 38%; increase in extra-lysosomal cytoplasmic Aβ, ENT (3×Tg-AD mice [5]; 3×Tg-AD): 1.9 fold; increase in extra-lysosomal cytoplasmic Aβ, FCX (3×Tg-AD mice [5]; 3×Tg-AD): 1.8 fold; increase in intraneuronal Aβ (IF), ENT (3×Tg-AD mice [5]; 3×Tg-AD): 59%; increase in intraneuronal Aβ (IF), FCX (3×Tg-AD mice [5]; 3×Tg-AD): 52%; increase in lipid within Aβ+ neurons, ENT (3×Tg-AD mice [5]; 3×Tg-AD): 2.2 fold; increase in lipid within Aβ+ neurons, FCX (3×Tg-AD mice [5]; 3×Tg-AD): 75%; increase in lysosomal lipid in Aβ+ neurons, ENT (3×Tg-AD mice [5]; 3×Tg-AD): 3.3 fold; increase in lysosomal lipid in Aβ+ neurons, FCX (3×Tg-AD mice [5]; 3×Tg-AD): ~ 75% and 75%; increase in lysosomes in Aβ+ neurons, FCX and ENT (3×Tg-AD mice [5]; 3×Tg-AD): 2 fold; increase in p-tau181 in FCX (3×Tg-AD mice [5]; 3×Tg-AD): 40%; increase in p-tau-181 in CA1 and FCX (3×Tg-AD mice [5]; 3×Tg-AD): 40%; reduction in total LAL in ENT and SUB (3×Tg-AD mice [5]; 3×Tg-AD): ~50%; increase in Aβ plaques, female subiculum, dorsal (3×Tg-AD mice [5]; 3×Tg-AD females): 91%; increase in Aβ plaques, female subiculum, ventral (3×Tg-AD mice [5]; 3×Tg-AD females): 127%; increase in amyloid plaques in SUB (3×Tg-AD mice [5]; 3×Tg-AD females): 2 fold; Aβ1-42 in FCX (3×Tg-AD mice [5]; 3×Tg-AD, both sexes): increased; increase in pathogenic intraneuronal Aβ1-42 in ENT, FCX and SUB (3×Tg-AD mice [5]; 3×Tg-AD, both sexes): 55-60%; increase in microglial (Iba-1+) lipid (3×Tg-AD mice [5]; 3×Tg-AD, chronic ethanol): 2 fold and ~ 2 fold; increase in LAMP1+ lysosomes in Aβ-containing neurons, FCX (3×Tg-AD mice [5]; 3×Tg-AD, ethanol-treated females): ~ 2 fold; increase in intraneuronal Aβ1-42 in ENT (3×Tg-AD mice [5]; 3×Tg-AD, midlife ethanol vs control): 57%; increase in cytosolic lipid (LipidSpot), ENT (3×Tg-AD mice [5]; 3×Tg-AD, listed as EtOH): 80%; reduction of Aβ lysosomal:extra-lysosomal cytoplasmic (lyso:cyto) ratio, FCX and ENT (3×Tg-AD mice [5]; 3×Tg-AD, stated for ethanol and obesity together): ~ 20%; peak blood alcohol concentration [6]: ~ 290 mg/dL and ~ 280 mg/dL

**Q.** Which results are given for `O=C(Oc1nsnc1N1CCCCC1)N1CCCCC1` [LAListat]?
**A.** effect on cytosolic lipid levels (HEBSC from 3×Tg-AD mice; [8]): concentration-dependent increase; also recorded: dose-dependent increase; effect on intraneuronal Aβ in ENT (HEBSC from 3×Tg-AD mice; [8]): concentration-dependent increase; also recorded: dose-dependent increase

**Q.** With `O=c1c(-c2ccc(O)cc2)coc2cc(O)cc(O)c12` [genistein] as the molecule, how does the “effect on ethanol-induced increase in cytosolic lipid” value (HEBSC from 3×Tg-AD mice; HEBSC from 3×Tg-AD mice) read?
**A.** did not abolish; also recorded: did not reduce; also recorded: no effect

B1: rLAL: recombinant lysosomal acid lipase / sebelipase (protein, UniProt P38571 77-399, looked up)
Lysosomal acid …: GPKPVVFLQHGLLADSSNWVTNLANSSLGFILADAGFDVWMGNSRGNTWSRKHKTLSVSQDEFWAFSYDEMAKYDLPASINFILNKTGQEQVYYVGHSQGTTIGFIAFSQIPELAKRIKMFFALGPVASVAFCTSPMAKLGRLPDHLIKDLFGDKEFLPQSAFLKWLGTHVCTHVILKELCGNLCFLLCGFNERNLNMSRVDVYTTHSPAGTSVQNMLHWSQAVKFQKFQAFDWGSSAKNYFHYNQSYPPTYNVKDMLVPTAVWSGGHDWLADVYDVNILLTQITNLVFHESIPEWEHLDFIWGLDAPWRLYNKIINLMRKYQ
**Q.** With B1 as the molecule, how does the “reduction of baseline Aβ levels” value (HEBSC from 3×Tg-AD mice; HEBSC from 3×Tg-AD mice) read?
**A.** 50%

**Q.** And the “effect on ethanol-induced increase in cytosolic lipid” value (HEBSC from 3×Tg-AD mice; HEBSC from 3×Tg-AD mice)?
**A.** blocked

**Q.** What about the “effect on ethanol-induced increase in intraneuronal Aβ” value (HEBSC from 3×Tg-AD mice; HEBSC from 3×Tg-AD mice) of the same molecule?
**A.** abolished

**Q.** What about the “effect on ethanol-induced increase in intraneuronal Aβ” value (HEBSC from 3×Tg-AD mice; HEBSC from 3×Tg-AD mice, listed as Recombinant LAL) of the same molecule?
**A.** blocked
